# Tested on: Plasmodium berghei
# Assay: Luciferase/luciferin-expressing antifolate-resistant parasites were used to infect a culture of HepG2 cells that were pre-incubated with compounds. Infected hepatocytes emit light due to the luciferase reaction. Assay results are presented as the percent inhibition of light emission compared to control. […]
# Format: functional
# Settings: sporozoite; for IC90: read-out: LUCIFERASE INFECTION ASSAY - IC90
SMILES,IC90,also measured
COc1cc(OC)cc(-c2cn3c(-c4ccc5c(c4)OCO5)cnc3cn2)c1,> 8.79 µM,"IC50 (HEPG2TOX_HILL_SLOPE 7.71, HEPG2TOX_R_SQUARED 0.876, PBLUC_HILL_SLOPE 4.45, PBLUC_R_SQUARED 0.518, read-out: LUCIFERASE INFECTION ASSAY - IC50): 5.54 µM"
Nc1nccnc1C(=O)NNC(=O)c1cccc(C(F)(F)F)c1,7.02 µM,"IC50 (HEPG2TOX_HILL_SLOPE 7.79, HEPG2TOX_R_SQUARED 0.494, PBLUC_HILL_SLOPE 4.8, PBLUC_R_SQUARED 0.215, read-out: LUCIFERASE INFECTION ASSAY - IC50): 4.44 µM"
O=C(Nc1nnc(C(F)(F)F)[nH]1)c1cc(-c2ccc(Br)cc2)nc2ccccc12,> 10 µM,"IC50 (HEPG2TOX_HILL_SLOPE 7.84, HEPG2TOX_R_SQUARED 0.569, PBLUC_HILL_SLOPE 1.54, PBLUC_R_SQUARED 0.197, read-out: LUCIFERASE INFECTION ASSAY - IC50): 9.57 µM"
N#C/C(=C1/SC=C(c2ccc(-c3ccccc3)cc2)N1c1ccccc1)c1nnc2n1CCCCC2,3.6 µM,"IC50 (HEPG2TOX_HILL_SLOPE 7.81, HEPG2TOX_R_SQUARED 0.359, PBLUC_HILL_SLOPE 26.3, PBLUC_R_SQUARED 0.88, read-out: LUCIFERASE INFECTION ASSAY - IC50): 3.31 µM"
COc1cc2c(cc1OC)C(c1ccccc1)N(CC(=O)Nc1c(C)cc(C)cc1Cl)CC2 (centres undefined),9.2 µM,"IC50 (HEPG2TOX_HILL_SLOPE 7.81, HEPG2TOX_R_SQUARED 0.408, PBLUC_HILL_SLOPE 9.86, PBLUC_R_SQUARED 0.196, read-out: LUCIFERASE INFECTION ASSAY - IC50): 7.36 µM"
O=[N+]([O-])c1cccc(-c2nnc3c4ccccc4nc(C(F)(F)F)n23)c1,> 9.19 µM,"IC50 (HEPG2TOX_HILL_SLOPE 7.76, HEPG2TOX_R_SQUARED 0.363, PBLUC_HILL_SLOPE 1.91, PBLUC_R_SQUARED 0.781, read-out: LUCIFERASE INFECTION ASSAY - IC50): 4.42 µM"
CCCCNC(=O)c1c(NC(=O)c2ccc(OC)cc2)nc2ccc(C)cn12,8.55 µM,"IC50 (HEPG2TOX_HILL_SLOPE 7.85, HEPG2TOX_R_SQUARED 0.829, PBLUC_HILL_SLOPE 17, PBLUC_R_SQUARED 0.0919, read-out: LUCIFERASE INFECTION ASSAY - IC50): 7.51 µM"
Cc1cc(C(=O)CSc2nnc(C3CC3)o2)c(C)n1-c1ccc2c(c1)CCC2,> 10 µM,"IC50 (HEPG2TOX_HILL_SLOPE 7.74, HEPG2TOX_R_SQUARED 0.677, read-out: LUCIFERASE INFECTION ASSAY - IC50): > 10 µM"
O=c1c2ccccc2ncn1CCOCCOc1ccccc1-c1ccccc1,> 8.54 µM,"IC50 (HEPG2TOX_HILL_SLOPE 7.75, HEPG2TOX_R_SQUARED 0.123, read-out: LUCIFERASE INFECTION ASSAY - IC50): > 8.54 µM"
COCc1cccc(C(=O)Nc2ccc3c(c2)OC(F)(F)O3)c1,> 10 µM,"IC50 (HEPG2TOX_HILL_SLOPE 7.81, HEPG2TOX_R_SQUARED 0.0219, PBLUC_HILL_SLOPE 15.2, PBLUC_R_SQUARED 0.505, read-out: LUCIFERASE INFECTION ASSAY - IC50): 9.35 µM"
CCCCc1ccc(CC(=O)NCc2ccc(Cn3cccn3)cc2)cc1,8.98 µM,"IC50 (HEPG2TOX_HILL_SLOPE 7.71, 2.15, HEPG2TOX_R_SQUARED 0.735, 0.901, PBLUC_HILL_SLOPE 15.3, 3.44, PBLUC_R_SQUARED 0.0878, 0.809, read-out: LUCIFERASE INFECTION ASSAY - IC50): 7.36 µM"
CC(C)c1cccc(-c2ccc3nnc(-c4ccc5c(c4)NC(=O)CO5)n3c2)c1,> 10 µM,"IC50 (HEPG2TOX_HILL_SLOPE 7.77, HEPG2TOX_R_SQUARED 0.643, read-out: LUCIFERASE INFECTION ASSAY - IC50): > 10 µM"
CCc1ccc(C(=O)Nc2nc3ccc(C)cn3c2C(=O)NC(C)CC)cc1 (centres undefined),3.2 µM,"IC50 (HEPG2TOX_HILL_SLOPE 7.71, HEPG2TOX_R_SQUARED 0.568, PBLUC_HILL_SLOPE 11.7, PBLUC_R_SQUARED 0.544, read-out: LUCIFERASE INFECTION ASSAY - IC50): 2.65 µM"
CC(=O)Nc1cccc(Oc2ccc(C(=O)Nc3ccc4ccccc4c3)cc2[N+](=O)[O-])c1,1.68 µM,"IC50 (HEPG2TOX_HILL_SLOPE 7.7, HEPG2TOX_R_SQUARED 0.774, PBLUC_HILL_SLOPE 1.37, PBLUC_R_SQUARED 0.884, read-out: LUCIFERASE INFECTION ASSAY - IC50): 0.337 µM"
O=C1C=C(c2ccc(Cl)cc2)C(=O)N1Nc1ccc(F)cc1,> 10.4 µM,"IC50 (HEPG2TOX_HILL_SLOPE 7.85, HEPG2TOX_R_SQUARED 0.837, PBLUC_HILL_SLOPE 13.2, PBLUC_R_SQUARED 0.145, read-out: LUCIFERASE INFECTION ASSAY - IC50): 10.2 µM"
Cc1sc2nc3c4ccccc4c(NCc4ccccc4CN4CCOCC4)nn3c(=O)c2c1C,> 10 µM,"IC50 (HEPG2TOX_HILL_SLOPE 7.8, HEPG2TOX_R_SQUARED 0.205, PBLUC_HILL_SLOPE 3, PBLUC_R_SQUARED 0.458, read-out: LUCIFERASE INFECTION ASSAY - IC50): 5.95 µM"

SMILES,IC90,also measured
CC(Sc1nc2ccccc2c(=O)n1C)C(=O)Nc1cc([N+](=O)[O-])ccc1Cl (centres undefined),> 10 µM,"IC50 (HEPG2TOX_HILL_SLOPE 7.72, HEPG2TOX_R_SQUARED 0.92, read-out: LUCIFERASE INFECTION ASSAY - IC50): > 10 µM"
O=C1C=C(NCCSCc2ccccc2Cl)CC(c2ccc3c(c2)OCO3)C1 (centres undefined),> 7.93 µM,"IC50 (HEPG2TOX_HILL_SLOPE 7.83, HEPG2TOX_R_SQUARED 0.476, PBLUC_HILL_SLOPE 2.36, PBLUC_R_SQUARED 0.149, read-out: LUCIFERASE INFECTION ASSAY - IC50): 6.56 µM"
C(=N\N1CCN(c2ccccn2)CC1)/C1=C(Sc2nc3ccccc3s2)CCCC1,> 10 µM,"IC50 (HEPG2TOX_HILL_SLOPE 7.72, HEPG2TOX_R_SQUARED 0.819, PBLUC_HILL_SLOPE 7.09, PBLUC_R_SQUARED 0.503, read-out: LUCIFERASE INFECTION ASSAY - IC50): 7.43 µM"
O=c1cc(C(F)(F)F)[nH]n1-c1ccc(OC(F)(F)F)cc1,> 10.6 µM,"IC50 (HEPG2TOX_HILL_SLOPE 7.72, HEPG2TOX_R_SQUARED 0.792, PBLUC_HILL_SLOPE 12.3, PBLUC_R_SQUARED 0.186, read-out: LUCIFERASE INFECTION ASSAY - IC50): 9.78 µM"
CC(C)c1ccc(-n2c(SCc3c(F)cccc3Cl)nnc2-c2ccc(C(C)(C)C)cc2)cc1,5.28 µM,"IC50 (HEPG2TOX_HILL_SLOPE 7.75, HEPG2TOX_R_SQUARED 0.388, PBLUC_HILL_SLOPE 5.31, PBLUC_R_SQUARED 0.644, read-out: LUCIFERASE INFECTION ASSAY - IC50): 3.49 µM"
CCOC(=O)c1sc(NC(=O)c2cc(-c3ccc(F)cc3)nc3ccccc23)cc1C,9.91 µM,"IC50 (HEPG2TOX_HILL_SLOPE 7.73, HEPG2TOX_R_SQUARED 0.935, PBLUC_HILL_SLOPE 14.3, PBLUC_R_SQUARED 0.729, read-out: LUCIFERASE INFECTION ASSAY - IC50): 8.51 µM"
CCc1c(C(=O)Nc2nc(C)cs2)cnn1-c1cccc(Cl)c1,1.14 µM,"IC50 (HEPG2TOX_HILL_SLOPE 7.81, HEPG2TOX_R_SQUARED 0.827, PBLUC_HILL_SLOPE 1.59, PBLUC_R_SQUARED 0.7, read-out: LUCIFERASE INFECTION ASSAY - IC50): 0.286 µM"
CSc1ccccc1NC(=O)CN1CCN(C(c2ccccc2)c2ccccc2)CC1,6.36 µM,"IC50 (HEPG2TOX_HILL_SLOPE 7.79, HEPG2TOX_R_SQUARED 0.752, PBLUC_HILL_SLOPE 3.88, PBLUC_R_SQUARED 0.663, read-out: LUCIFERASE INFECTION ASSAY - IC50): 3.61 µM"
Nc1ncc(-c2cccc(O)c2)cc1-c1cccc(C(F)(F)F)c1,3.76 µM,"IC50 (HEPG2TOX_HILL_SLOPE 7.78, HEPG2TOX_R_SQUARED 0.72, PBLUC_HILL_SLOPE 13.3, PBLUC_R_SQUARED 0.696, read-out: LUCIFERASE INFECTION ASSAY - IC50): 3.18 µM"
CCn1c2ccccc2c2cc(NC(=O)COC(=O)C3CSC4(c5ccc(F)cc5)CCC(=O)N34)ccc21 (centres undefined),> 10 µM,"IC50 (HEPG2TOX_HILL_SLOPE 7.81, HEPG2TOX_R_SQUARED 0.779, read-out: LUCIFERASE INFECTION ASSAY - IC50): > 10 µM"
Cc1ccc(C)c(-c2nn(CC(=O)N3c4ccccc4CC3C)c(=O)c3ccccc23)c1 (centres undefined),> 10 µM,"IC50 (HEPG2TOX_HILL_SLOPE 7.77, HEPG2TOX_R_SQUARED 0.247, read-out: LUCIFERASE INFECTION ASSAY - IC50): > 10 µM"
C=CCNC(=O)CSc1nccc(-c2sc3sc(Br)c(C)c3c2C)n1,> 7.26 µM,"IC50 (HEPG2TOX_HILL_SLOPE 7.83, HEPG2TOX_R_SQUARED 0.735, PBLUC_HILL_SLOPE 0.44, PBLUC_R_SQUARED 0.419, read-out: LUCIFERASE INFECTION ASSAY - IC50): 2.88 µM"
O=C(COc1ccccc1)Nc1nc2ccccn2c1C(=O)NC1CCCCC1,6.99 µM,"IC50 (HEPG2TOX_HILL_SLOPE 7.86, HEPG2TOX_R_SQUARED 0.377, PBLUC_HILL_SLOPE 5.91, PBLUC_R_SQUARED 0.352, read-out: LUCIFERASE INFECTION ASSAY - IC50): 4.82 µM"
CCCN(CCC)Cc1c(O)ccc2c1O/C(=C\c1ccc(OCC)cc1)C2=O,> 8.34 µM,"IC50 (HEPG2TOX_HILL_SLOPE 7.71, HEPG2TOX_R_SQUARED 0.351, PBLUC_HILL_SLOPE 26.6, PBLUC_R_SQUARED 0.241, read-out: LUCIFERASE INFECTION ASSAY - IC50): 7.9 µM"
CCNC(=O)C1(C)CCCN1Cc1ccc(-c2ccccc2)cc1 (centres undefined),> 10.2 µM,"IC50 (HEPG2TOX_HILL_SLOPE 7.75, HEPG2TOX_R_SQUARED 0.0398, PBLUC_HILL_SLOPE 14.9, PBLUC_R_SQUARED 0.606, read-out: LUCIFERASE INFECTION ASSAY - IC50): 9.52 µM"
CCn1c(-c2cc(C(=O)c3ccccc3O)c[nH]2)nc2ccccc21,> 10 µM,"IC50 (HEPG2TOX_HILL_SLOPE 7.78, HEPG2TOX_R_SQUARED 0.356, PBLUC_HILL_SLOPE 1.9, PBLUC_R_SQUARED 0.373, read-out: LUCIFERASE INFECTION ASSAY - IC50): 6.07 µM"

# Reference: ChEMBL document CHEMBL4483862, “Open-source discovery of chemical leads for next-generation chemoprotective antimalarials” (2018)
